Like-named read-outs stand apart in the source and are kept apart here.
What was measured:
[1] = target: GSK3b (GST-full length GSK3b) (Homo sapiens (Human), UniProt P49841); assay: GSK3b TR-FRET kinase assay; assay type: biochemical
Procedure, shortened: (§1)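 Full-length GST-tagged human enzyme (1 nM) is exposed to test compound for 30 min before substrates are added. Phosphorylation of a primed biotinylated glycogen synthase peptide proceeds 100 min at room temperature at low ATP (4 μM α; 2 μM β) or high ATP (1 mM). Product is quantified by TR-FRET.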

[2] = target: GSK3α (GST-full length GSK3α) (Homo sapiens (Human), UniProt P49840); assay: GSK3α TR-FRET kinase assay; assay type: biochemical
Procedure, shortened: as §1

[3] = 1 nM GSK3b, 2 μM ATP, 30 minute preincubation, Table 16, read-out: GSK3-B TR-FRET BIOCHEMICAL (TR-FRET), IC50
[4] = 1 nM GSK3α, 4 μM ATP, 30 minute preincubation, Table 16, read-out: GSK3-A TR-FRET BIOCHEMICAL (TR-FRET), IC50
[5] = 1 nM GSK3b, 2 μM ATP, 30 minute preincubation, Table 16, read-out: GSK3-B TR-FRET BIOCHEMICAL (TR-FRET)
[6] = 1 nM GSK3α, 4 μM ATP, 30 minute preincubation, Table 16, read-out: GSK3-A TR-FRET BIOCHEMICAL (TR-FRET)
[7] = read-out: GSK3-B (TR-FRET 1 mM ATP), GMean, IC50, 1 mM ATP, geometric mean
[8] = read-out: GSK3-A (TR-FRET 1 mM ATP), GMean, IC50, 1 mM ATP, geometric mean
[9] = 1 nM GSK3b, 2 μM ATP, 30 minute preincubation, read-out: GSK3-B TR-FRET BIOCHEMICAL (TR-FRET), IC50
[10] = 1 nM GSK3α, 4 μM ATP, 30 minute preincubation, read-out: GSK3-A TR-FRET BIOCHEMICAL (TR-FRET), IC50
[11] = GSK3-A (TR-FRET 1 mM ATP), GMean, IC50, 1 mM ATP, geometric mean
[12] = GSK3-B (TR-FRET 1 mM ATP), GMean, IC50, 1 mM ATP, geometric mean

Chain of GSK3b (GST-full length GSK3b) (P49841 whole entry): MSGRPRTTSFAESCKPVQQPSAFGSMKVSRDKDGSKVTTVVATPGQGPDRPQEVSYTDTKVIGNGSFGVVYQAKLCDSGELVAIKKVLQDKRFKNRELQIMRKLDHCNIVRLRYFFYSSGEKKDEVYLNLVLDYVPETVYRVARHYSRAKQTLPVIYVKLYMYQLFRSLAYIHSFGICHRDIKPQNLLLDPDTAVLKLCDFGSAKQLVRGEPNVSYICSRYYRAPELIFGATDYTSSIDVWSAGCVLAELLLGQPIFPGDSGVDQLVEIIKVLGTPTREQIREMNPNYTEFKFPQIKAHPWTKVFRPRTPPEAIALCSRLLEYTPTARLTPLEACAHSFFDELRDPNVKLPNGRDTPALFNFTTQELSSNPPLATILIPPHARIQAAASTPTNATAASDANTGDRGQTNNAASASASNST
Chain of GSK3α (GST-full length GSK3α) (P49840 whole entry): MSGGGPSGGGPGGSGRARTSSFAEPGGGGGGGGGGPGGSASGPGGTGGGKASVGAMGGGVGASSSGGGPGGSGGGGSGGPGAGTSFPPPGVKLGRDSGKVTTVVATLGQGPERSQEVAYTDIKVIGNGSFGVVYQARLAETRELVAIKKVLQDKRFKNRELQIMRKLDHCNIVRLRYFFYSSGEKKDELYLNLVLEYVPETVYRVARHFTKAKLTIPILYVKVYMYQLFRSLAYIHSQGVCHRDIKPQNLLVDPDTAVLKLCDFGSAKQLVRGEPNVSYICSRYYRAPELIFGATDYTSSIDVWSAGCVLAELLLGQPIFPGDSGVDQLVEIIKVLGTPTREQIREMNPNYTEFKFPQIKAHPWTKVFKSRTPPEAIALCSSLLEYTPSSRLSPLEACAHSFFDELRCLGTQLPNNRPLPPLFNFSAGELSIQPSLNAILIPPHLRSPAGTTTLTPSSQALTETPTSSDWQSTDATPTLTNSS

| Compound | IC50 [1, 3] [nM] | IC50 [2, 4] [nM] | IC50 [1, 5] [nM] | IC50 [2, 6] [nM] | further results |
| --- | --- | --- | --- | --- | --- |
| CCC1(c2cccc(-c3ccnc(OC(F)F)c3)c2)C2=C(CC(C)(C)CC2=O)Nc2n[nH]cc21 (stereo not shown) [Compound 932629] | 100 to 1000 | ≤ 100 |  |  |  |
| CCC1(c2cccc(-c3cc(OC)ncc3F)c2)C2=C(CC(C)(C)CC2=O)Nc2n[nH]cc21 (stereo not shown) [Compound 932630] | ≤ 100 | ≤ 100 |  |  |  |
| CCC1(c2cccc(-c3ccnc4ccccc34)c2)C2=C(CC(C)(C)CC2=O)Nc2n[nH]cc21 (stereo not shown) [Compound 932631] | ≤ 100 | ≤ 100 |  |  |  |
| CC1(C)CC(=O)C2=C(C1)Nc1n[nH]cc1C21CCCN(S(=O)(=O)Cc2ccccc2)CC1 (stereo not shown) [Compound 932632] |  |  | 100 to 1000 | ≤ 100 |  |
| CC1(C)CC(=O)C2=C(C1)Nc1n[nH]cc1C21CCCN(c2ccncc2)CC1 (stereo not shown) [Compound 932633] | > 5000 | > 5000 |  |  |  |
| CCC1(c2cccc(N(C)c3ccc(C(F)(F)F)nc3)c2)C2=C(CC(C)(C)CC2=O)Nc2n[nH]cc21 (stereo not shown) [Compound 932634] | 100 to 1000 | ≤ 100 |  |  |  |
| CCC1(c2cccc(-c3ccnc(C)c3)c2)C2=C(CC(C)CC2=O)Nc2n[nH]cc21 (stereo not shown) [Compound 932637] | > 5000 | > 5000 |  |  |  |
| CCC1(c2cccc(-c3ccnc(C)c3)c2)C2=C(CC(C)CC2=O)Nc2n[nH]cc21 (stereo not shown) [Compound 932638] | > 5000 | > 5000 |  |  |  |
| CC1(C)CC(=O)C2=C(C1)Nc1n[nH]cc1[C@@]21CCCN(S(=O)(=O)C2CC2)CC1 [Compound 932639] |  |  | 100 to 1000 | ≤ 100 |  |
| CCC1(c2cccc(N(C)c3ccnc(OC)c3)c2)C2=C(CC(C)(C)CC2=O)Nc2n[nH]cc21 (stereo not shown) [Compound 932642] | 100 to 1000 | ≤ 100 |  |  |  |
| CCC1(c2cccc(N3CCOc4ncccc43)c2)C2=C(CC(C)(C)CC2=O)Nc2n[nH]cc21 (stereo not shown) [Compound 932643] | 1000 to 5000 | 100 to 1000 |  |  |  |
| CCC1(c2cccc(N(C)c3ccnc(C)c3)c2)C2=C(CC(C)(C)CC2=O)Nc2n[nH]cc21 (stereo not shown) [Compound 932645] | 1000 to 5000 | 100 to 1000 |  |  |  |
| Cn1nccc1S(=O)(=O)N1CC2(C1)C1=C(CC(C)(C)CC1=O)Nc1n[nH]cc12 [Compound 932648] |  |  | ≤ 100 | ≤ 100 |  |
| Cn1nccc1S(=O)(=O)N1CCC2(CC1)C1=C(CC(C)(C)CC1=O)Nc1n[nH]cc12 [Compound 932649] |  |  | ≤ 100 | ≤ 100 |  |
| CC(C)N1CC2(C1)C1=C(CC(C)(C)CC1=O)Nc1n[nH]cc12 [Compound 932650] | > 5000 | > 5000 |  |  |  |
| CC1(C)CC(=O)C2=C(C1)Nc1n[nH]cc1C21CN(C2CCOCC2)C1 [Compound 932651] | > 5000 | > 5000 |  |  |  |
| Cn1ccc(CN2CC3(C2)C2=C(CC(C)(C)CC2=O)Nc2n[nH]cc23)n1 [Compound 932652] | > 5000 | > 5000 |  |  |  |
| Cn1nccc1CN1CC2(C1)C1=C(CC(C)(C)CC1=O)Nc1n[nH]cc12 [Compound 932653] | > 5000 | 1000 to 5000 |  |  |  |
| CC1(C)CC(=O)C2=C(C1)Nc1n[nH]cc1C21CN(Cc2cnc3ccccn23)C1 [Compound 932654] | > 5000 | > 5000 |  |  |  |
| CC1(C)CC(=O)C2=C(C1)Nc1n[nH]cc1[C@]21CCCN(S(=O)(=O)C2CC2)CC1 [Compound 932659] |  |  | 100 to 1000 | ≤ 100 |  |
| Cn1ccc(S(=O)(=O)N2CCC[C@]3(CC2)C2=C(CC(C)(C)CC2=O)Nc2n[nH]cc23)n1 [Compound 932660] |  |  | 100 to 1000 | ≤ 100 |  |
| CCC1(c2cccc(N3CCOc4ncccc43)c2)C2=C(CC(C)(C)CC2=O)Nc2n[nH]cc21 (stereo not shown) [Compound 932663] |  |  | ≤ 100 | ≤ 100 |  |
| CC[C@]1(c2cccc(N(C)c3cccc(OC)n3)c2)C2=C(CC(C)(C)CC2=O)Nc2n[nH]cc21 [Compound 932666] |  |  | 100 to 1000 | ≤ 100 |  |
| COC(=O)C1(c2ccccc2)CC2(C1)C1=C(CC(C)(C)CC1=O)Nc1n[nH]cc12 (stereo not shown) [Compound 942344] |  |  | 100 to 1000 | ≤ 100 |  |
| COC(=O)C1(c2ccccc2)CC2(C1)C1=C(CC(C)(C)CC1=O)Nc1n[nH]cc12 (stereo not shown) [Compound 942366] |  |  | ≤ 100 | ≤ 100 |  |

| Compound | IC50 [1, 3] [nM] | IC50 [2, 4] [nM] | IC50 [1, 5] [nM] | IC50 [2, 6] [nM] | further results |
| --- | --- | --- | --- | --- | --- |
| CC1(C)CC(=O)C2=C(C1)Nc1n[nH]cc1[C@]21CCN(S(C)(=O)=O)C1 [Compound 942432] |  |  | ≤ 100 | ≤ 100 |  |
| CC1(C)CC(=O)C2=C(C1)Nc1n[nH]cc1[C@@]21CCN(S(C)(=O)=O)C1 [Compound 942462] |  |  | ≤ 100 | ≤ 100 |  |
| CCC1(c2cccc(N(C)c3nccc(C)n3)c2)C2=C(CC(C)(C)CC2=O)Nc2n[nH]cc21 (stereo not shown) [Compound 942642] |  |  | ≤ 100 | ≤ 100 | IC50 [1, 7]: 1000 to 5000 nM; IC50 [2, 8]: ≤ 100 nM |
| CCC1(c2cccc(-c3cc(C)nn3C)c2)C2=C(CC(C)(C)NC2=O)Nc2[nH]ncc21 (stereo not shown) [Compound 943371] |  |  |  |  | IC50 [1, 9]: 1000 to 5000 nM; IC50 [2, 10]: ≤ 100 nM |
| CC1(C)CC(=O)C2=C(C1)Nc1n[nH]cc1[C@]21CCN(S(=O)(=O)CC2CC2)C1 [Compound 943481] |  |  | ≤ 100 | ≤ 100 | IC50 [1, 7]: 100 to 1000 nM; IC50 [2, 11]: 100 to 1000 nM |
| CC1(C)CC(=O)C2=C(C1)Nc1n[nH]cc1[C@]21CCN(S(=O)(=O)C2CCCC2)C1 [Compound 943482] |  |  | ≤ 100 | ≤ 100 | IC50 [1, 12]: 100 to 1000 nM; IC50 [2, 11]: 100 to 1000 nM |
| Cn1cc(S(=O)(=O)N2CC[C@]3(C2)C2=C(CC(C)(C)CC2=O)Nc2n[nH]cc23)cn1 [Compound 943483] |  |  | ≤ 100 | ≤ 100 |  |
| Cn1ccc(S(=O)(=O)N2CC[C@]3(C2)C2=C(CC(C)(C)CC2=O)Nc2n[nH]cc23)n1 [Compound 943484] |  |  | ≤ 100 | ≤ 100 | IC50 [1, 12]: 1000 to 5000 nM; IC50 [2, 11]: 100 to 1000 nM |
| CC1(C)CC(=O)C2=C(C1)Nc1n[nH]cc1[C@]21CCN(S(=O)(=O)c2ccccc2)C1 [Compound 943485] |  |  | ≤ 100 | ≤ 100 | IC50 [1, 12]: 1000 to 5000 nM; IC50 [2, 11]: 100 to 1000 nM |
| COc1cccc(S(=O)(=O)N2CC[C@]3(C2)C2=C(CC(C)(C)CC2=O)Nc2n[nH]cc23)c1 [Compound 943486] |  |  | ≤ 100 | ≤ 100 |  |
| CC1(C)CC(=O)C2=C(C1)Nc1n[nH]cc1[C@]21CCN(S(=O)(=O)c2ccccc2F)C1 [Compound 943487] |  |  |  |  | IC50 [1, 9]: ≤ 100 nM; IC50 [1, 12]: 100 to 1000 nM; IC50 [2, 10]: ≤ 100 nM; IC50 [2, 11]: ≤ 100 nM |
| CC1(C)CC(=O)C2=C(C1)Nc1n[nH]cc1[C@]21CCN(S(=O)(=O)c2cccc(F)c2)C1 [Compound 943488] |  |  | ≤ 100 | ≤ 100 |  |
| Cc1cccc(S(=O)(=O)N2CC[C@]3(C2)C2=C(CC(C)(C)CC2=O)Nc2n[nH]cc23)c1 [Compound 943489] |  |  | ≤ 100 | ≤ 100 |  |
| CCC1(c2cccc(N(C)c3ccnnc3)c2)C2=C(CC(C)(C)CC2=O)Nc2n[nH]cc21 (stereo not shown) [Compound 943492] |  |  | ≤ 100 | ≤ 100 |  |
| CCC1(c2cccc(-c3cnnc(C)c3)c2)C2=C(CC(C)(C)NC2=O)Nc2n[nH]cc21 (stereo not shown) [Compound 943496] |  |  |  |  | IC50 [1, 9]: 1000 to 5000 nM; IC50 [2, 10]: ≤ 100 nM |
| CC[C@]1(c2cccc(-c3cc(C)ncc3C)c2)C2=C(CC(C)(C)CC2=O)Nc2n[nH]cc21 [Compound 943515] |  |  | > 5000 | 1000 to 5000 |  |
| CCC1(c2cccc(-c3ccnc(C)c3C)c2)C2=C(CC(C)(C)CC2=O)Nc2n[nH]cc21 (stereo not shown) [Compound 943516] |  |  | ≤ 100 | ≤ 100 | IC50 [1, 7]: 1000 to 5000 nM; IC50 [2, 8]: ≤ 100 nM |
| CCC1(c2cccc(-c3ccnc(C)c3C)c2)C2=C(CC(C)(C)CC2=O)Nc2n[nH]cc21 (stereo not shown) [Compound 943517] |  |  | > 5000 | 100 to 1000 |  |
| CCC1(c2cccc(-c3ccncc3F)c2)C2=C(CC(C)(C)CC2=O)Nc2n[nH]cc21 (stereo not shown) [Compound 943518] |  |  | ≤ 100 | ≤ 100 | IC50 [1, 7]: 100 to 1000 nM; IC50 [2, 8]: ≤ 100 nM |
| CC[C@]1(c2cccc(-c3ccncc3F)c2)C2=C(CC(C)(C)CC2=O)Nc2n[nH]cc21 [Compound 943519] |  |  | 1000 to 5000 | 100 to 1000 |  |
| CCC1(c2cccc(-c3cnc(C)n3C)c2)C2=C(CC(C)(C)CC2=O)Nc2n[nH]cc21 (stereo not shown) [Compound 943531] |  |  | 100 to 1000 | ≤ 100 | IC50 [1, 7]: > 5000 nM; IC50 [2, 8]: 100 to 1000 nM |
| CCC1(c2cccc(-c3ncnn3C)c2)C2=C(CC(C)(C)CC2=O)Nc2n[nH]cc21 (stereo not shown) [Compound 943532] |  |  | 100 to 1000 | ≤ 100 |  |
| CCC1(c2cccc(-c3cncn3C)c2)C2=C(CC(C)(C)CC2=O)Nc2n[nH]cc21 (stereo not shown) [Compound 943533] |  |  | ≤ 100 | ≤ 100 |  |
| CCC1(c2cccc(-c3ccnc4c3CCC4)c2)C2=C(CC(C)(C)CC2=O)Nc2n[nH]cc21 (stereo not shown) [Compound 943534] |  |  | ≤ 100 | ≤ 100 |  |
| CCC1(c2cccc(-c3cnc4n3CCCC4)c2)C2=C(CC(C)(C)CC2=O)Nc2n[nH]cc21 (stereo not shown) [Compound 943535] |  |  | ≤ 100 | ≤ 100 |  |
